Measurements as given in ChEMBL document CHEMBL1131683, “Preparation of pyrrolidine and isoxazolidine benzamidines as potent inhibitors of coagulation factor Xa” (Bioorg Med Chem Lett, 1999).

Experiments:
Coagulation factor X = Coagulation factor X (Homo sapiens, UniProt P00742); assay: Binding affinity against Coagulation factor X in an enzyme inhibition assay.
[1] = Half life value in rabbits; type: ADME, Oryctolagus cuniculus; conditions: rabbit, in vivo
[2] = Clearance rate in rabbits; type: ADME, organism-based, Oryctolagus cuniculus; conditions: rabbit, in vivo
Serine protease 1 = Serine protease 1 (Homo sapiens, UniProt P07477); assay: Binding affinity against trypsin in an enzyme inhibition assay.
Oryctolagus cuniculus = species on record: Oryctolagus cuniculus; assay: Compound was tested for its effect in rabbit arterio-venous (A-V) shunt thrombosis model and the inhibitory dose was reported; type: functional

Serine protease 1, sequence (P07477 whole entry): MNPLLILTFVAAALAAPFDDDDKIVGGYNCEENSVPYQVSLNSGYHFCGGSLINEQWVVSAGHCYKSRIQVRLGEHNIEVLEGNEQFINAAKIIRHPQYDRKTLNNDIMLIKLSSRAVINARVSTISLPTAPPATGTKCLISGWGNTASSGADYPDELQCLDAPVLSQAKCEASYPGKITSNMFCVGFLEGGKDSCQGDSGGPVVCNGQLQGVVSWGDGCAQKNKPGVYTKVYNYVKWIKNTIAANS
Coagulation factor X, sequence (P00742 41-179 limits assumed): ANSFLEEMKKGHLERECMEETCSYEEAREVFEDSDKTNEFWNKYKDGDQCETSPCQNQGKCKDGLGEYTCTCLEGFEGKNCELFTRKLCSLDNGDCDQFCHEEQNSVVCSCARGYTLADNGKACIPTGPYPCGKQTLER
Coagulation factor X, sequence (P00742 235-488 limits assumed): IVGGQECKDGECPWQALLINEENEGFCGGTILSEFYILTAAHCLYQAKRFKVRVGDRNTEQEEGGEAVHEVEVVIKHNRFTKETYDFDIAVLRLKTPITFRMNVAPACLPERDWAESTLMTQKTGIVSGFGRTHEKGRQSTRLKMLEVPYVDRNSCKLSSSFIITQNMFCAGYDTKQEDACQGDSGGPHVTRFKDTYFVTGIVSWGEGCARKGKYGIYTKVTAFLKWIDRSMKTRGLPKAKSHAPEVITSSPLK

Row | Ki (Coagulation factor X) [nM] | half-life [1] [h] | clearance [2] [mL/min/kg] | Ki (Serine protease 1) [nM] | SMILES | ID50 (Oryctolagus cuniculus) [µM/h/kg]
1 | 1.8 | < 1 | > 33.3 | 93 | CC(C)OC(=O)[C@@H]1CN(Cc2ccc(-c3ccccc3S(N)(=O)=O)cc2)O[C@H]1c1cccc(C(=N)N)c1.O=C(O)C(F)(F)F.O=C(O)C(F)(F)F | –
2 | 36 | – | – | 200 | CC(=O)[C@@H]1CN(Cc2ccc(-c3ccccc3S(N)(=O)=O)cc2)C[C@H]1c1cccc(C(=N)N)c1 | –
3 | 1.3 | – | – | – | COC(=O)CN(CCCc1ccc(-c2ccccc2S(N)(=O)=O)cc1)c1cccc(C(=N)N)c1 | –
4 | 150 | – | – | 500 | N=C(N)c1cccc([C@@H]2CN(Cc3ccc(-c4ccccc4S(N)(=O)=O)cc3)C[C@H]2C(N)=O)c1 | –
5 | 170 | – | – | > 1600 | COC(=O)[C@H]1CN(Cc2ccc(-c3ccccc3S(N)(=O)=O)cc2)C[C@H]1c1cccc(C(=N)N)c1 | –
6 | 400 | – | – | – | CN(C)C(=O)[C@@H]1CN(Cc2ccc(-c3ccccc3S(N)(=O)=O)cc2)C[C@H]1c1cccc(C(=N)N)c1 | –
7 | 26 | – | – | 750 | CCOC(=O)[C@]1(C)CN(Cc2ccc(-c3ccccc3S(N)(=O)=O)cc2)C[C@H]1c1cccc(C(=N)N)c1 | –
8 | 5.8 | < 1 | > 33.3 | 98 | CC(C)OC(=O)[C@@H]1CN(Cc2ccc(-c3ccccc3S(N)(=O)=O)cc2)C[C@H]1c1cccc(C(=N)N)c1.O=C(O)C(F)(F)F.O=C(O)C(F)(F)F | –
9 | 460 | – | – | – | N=C(N)c1cccc([C@@H]2CN(Cc3ccc(-c4ccccc4S(N)(=O)=O)cc3)C[C@@H]2C(=O)O)c1 | –
10 | 13 | – | – | 200 | COC(=O)[C@H]1CN(Cc2ccc(-c3ccccc3S(N)(=O)=O)cc2)C[C@@H]1c1cccc(C(=N)N)c1 | –
11 | 3.1 | – | – | 69 | COC(=O)[C@@H]1CN(Cc2ccc(-c3ccccc3S(N)(=O)=O)cc2)O[C@H]1c1cccc(C(=N)N)c1 | –
12 | 12 | – | – | 110 | CCCCOC(=O)[C@@H]1CN(Cc2ccc(-c3ccccc3S(N)(=O)=O)cc2)C[C@H]1c1cccc(C(=N)N)c1 | –
13 | 600 | – | – | – | N=C(N)c1cccc([C@@H]2CN(Cc3ccc(-c4ccccc4S(N)(=O)=O)cc3)C[C@H]2C(=O)O)c1 | –
14 | 4.8 | – | – | 63 | COC(=O)[C@@H]1CN(Cc2ccc(-c3ccccc3S(N)(=O)=O)cc2)C[C@H]1c1cccc(C(=N)N)c1.O=C(O)C(F)(F)F.O=C(O)C(F)(F)F (stereo in doubt; 10) | >1.4
15 | 3.4 | – | – | 52 | COC(=O)[C@@H]1CN(Cc2ccc(-c3ccccc3S(N)(=O)=O)cc2)C[C@H]1c1cccc(C(=N)N)c1 (stereo in doubt; 15) | –
